The source made the active and inactive calls.
Key:
[1] = cells; assay type: functional, cell-based; details: HEK-CNG
[2] = target: Galanin receptor type 3 (Homo sapiens, UniProt O60755); assay: Fluorescence-based cell-based primary high throughput dose response assay to identify antagonists of the Galanin Receptor 3 (GalR3).; assay type: functional
[3] = target: Beta Lactamase (Pseudomonas aeruginosa, UniProt Q932Y6); assay: BLA reporter interference, concentration series – BLA reporter cells, FRET fluorescence, artefact control for TLR9-MyD88 binding inhibitor project, dose response (AID 588341); assay type: cell-based;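 also: cell based assay in CHO-K1 cells stably expressing beta-lactamase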
[4] = system: CHO; assay: CHO cell viability loss, potency – luminescence, cytotoxicity control for TLR9-MyD88 binding inhibitor project, dose response (AID 588339); assay type: functional, cell-based, hamster; details: Cricetulus griseus;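 also: CHO cells stably coexpressing TLR9 and MyD88 fusions from primary screen; compound exposure lasted 48 hours before viability readout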
[5] = target: T1, Sentrin-specific protease 8 (Homo sapiens, UniProt Q96LD8); assay type: functional
T1 sequence (Q96LD8 whole entry): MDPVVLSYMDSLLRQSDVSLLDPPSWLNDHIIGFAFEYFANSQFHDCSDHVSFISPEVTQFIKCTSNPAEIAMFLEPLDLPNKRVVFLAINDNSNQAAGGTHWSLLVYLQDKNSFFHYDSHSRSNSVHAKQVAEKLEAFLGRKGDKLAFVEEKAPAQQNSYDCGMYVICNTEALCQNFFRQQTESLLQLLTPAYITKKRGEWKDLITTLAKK

[6] = target: T1, Sentrin-specific protease 8; assay type: functional; remark: listed apart in the source
[7] = target: T2, Caspase-6 (Homo sapiens, UniProt P55212); assay: inhibition of CASP6 peptide cleavage – biochemical, VEID-R110 fluorescence, cherry-pick, dose response (AID 720632)
T2 sequence (P55212 whole entry): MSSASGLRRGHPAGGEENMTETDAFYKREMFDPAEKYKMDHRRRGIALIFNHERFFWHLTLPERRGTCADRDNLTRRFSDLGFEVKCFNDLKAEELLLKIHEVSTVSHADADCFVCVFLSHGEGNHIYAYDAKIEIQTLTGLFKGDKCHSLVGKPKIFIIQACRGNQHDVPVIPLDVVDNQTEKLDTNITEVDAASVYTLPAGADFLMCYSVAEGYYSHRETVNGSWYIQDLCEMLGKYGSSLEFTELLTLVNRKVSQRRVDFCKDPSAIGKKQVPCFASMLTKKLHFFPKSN

[8] = target: T3, Streptokinase A (Streptococcus pyogenes serotype M1, UniProt P10520); assay: viability-normalized secreted streptokinase activity reduction – plasminogen activation absorbance, OD405, dose response (AID 1914); assay type: functional, Streptococcus pyogenes M1 GAS;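 also: secreted streptokinase activity via plasminogen activation per viability signal from cell pellet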
T3 sequence (P10520 whole entry): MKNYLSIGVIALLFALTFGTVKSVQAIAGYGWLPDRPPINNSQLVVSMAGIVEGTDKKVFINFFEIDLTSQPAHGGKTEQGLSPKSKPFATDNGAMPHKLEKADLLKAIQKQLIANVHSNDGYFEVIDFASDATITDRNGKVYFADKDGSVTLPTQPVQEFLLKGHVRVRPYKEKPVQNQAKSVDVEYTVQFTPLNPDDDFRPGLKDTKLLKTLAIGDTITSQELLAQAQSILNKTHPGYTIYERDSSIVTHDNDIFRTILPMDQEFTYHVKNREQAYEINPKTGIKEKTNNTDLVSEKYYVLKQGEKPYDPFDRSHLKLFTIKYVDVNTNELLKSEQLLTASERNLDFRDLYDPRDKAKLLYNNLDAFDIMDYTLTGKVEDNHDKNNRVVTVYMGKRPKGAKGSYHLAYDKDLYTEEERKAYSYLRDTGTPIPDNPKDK

[9] = target: T4, Apoptotic protease-activating factor 1 (Homo sapiens, UniProt O14727); assay type: functional
T4 sequence (O14727 whole entry): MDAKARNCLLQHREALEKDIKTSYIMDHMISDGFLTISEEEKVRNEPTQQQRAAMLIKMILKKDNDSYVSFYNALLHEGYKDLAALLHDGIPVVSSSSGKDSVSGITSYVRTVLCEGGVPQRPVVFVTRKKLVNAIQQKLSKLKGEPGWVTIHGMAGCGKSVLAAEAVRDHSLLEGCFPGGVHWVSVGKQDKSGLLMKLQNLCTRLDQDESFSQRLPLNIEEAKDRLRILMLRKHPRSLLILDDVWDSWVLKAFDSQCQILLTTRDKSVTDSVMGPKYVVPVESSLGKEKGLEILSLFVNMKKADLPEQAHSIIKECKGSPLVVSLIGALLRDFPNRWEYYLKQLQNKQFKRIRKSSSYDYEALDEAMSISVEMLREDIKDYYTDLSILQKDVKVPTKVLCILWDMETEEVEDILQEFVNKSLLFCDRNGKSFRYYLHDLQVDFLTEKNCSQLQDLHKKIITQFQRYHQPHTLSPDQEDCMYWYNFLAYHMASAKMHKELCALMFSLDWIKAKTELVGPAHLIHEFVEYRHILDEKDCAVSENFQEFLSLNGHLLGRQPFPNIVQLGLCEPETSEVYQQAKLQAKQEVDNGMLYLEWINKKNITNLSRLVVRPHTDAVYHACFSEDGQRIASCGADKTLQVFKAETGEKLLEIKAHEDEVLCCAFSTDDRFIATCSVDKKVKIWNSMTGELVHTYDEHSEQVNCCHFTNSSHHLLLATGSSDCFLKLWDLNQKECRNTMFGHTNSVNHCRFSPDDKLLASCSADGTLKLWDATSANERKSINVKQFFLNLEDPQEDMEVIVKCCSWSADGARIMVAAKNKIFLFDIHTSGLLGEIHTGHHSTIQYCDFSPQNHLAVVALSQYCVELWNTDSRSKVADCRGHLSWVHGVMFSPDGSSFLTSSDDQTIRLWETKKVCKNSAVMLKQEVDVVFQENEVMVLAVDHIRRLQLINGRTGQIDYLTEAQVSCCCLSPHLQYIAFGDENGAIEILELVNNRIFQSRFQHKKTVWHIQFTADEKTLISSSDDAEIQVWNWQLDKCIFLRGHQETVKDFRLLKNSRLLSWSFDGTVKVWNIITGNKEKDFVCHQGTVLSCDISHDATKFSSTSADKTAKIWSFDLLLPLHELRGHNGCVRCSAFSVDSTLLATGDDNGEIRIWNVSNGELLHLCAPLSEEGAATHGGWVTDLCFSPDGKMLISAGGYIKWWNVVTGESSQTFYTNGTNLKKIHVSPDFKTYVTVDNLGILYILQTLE

[10] = target: T5, Endoribonuclease toxin MazF (Escherichia coli K-12, UniProt P0AE70); assay: substrate-only fluorescence increase artefacts – biochemical, single-stranded RNase substrate, counter-screen for MazEF activator project, dose response (AID 588502); assay type: functional
T5 sequence (P0AE70 whole entry): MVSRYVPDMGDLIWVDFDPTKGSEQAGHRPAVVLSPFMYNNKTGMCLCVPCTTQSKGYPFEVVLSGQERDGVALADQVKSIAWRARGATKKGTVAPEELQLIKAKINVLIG

[11] = target: T5, Endoribonuclease toxin MazF; assay: activation of MazEF endoribonuclease cleavage – biochemical, fluorescence, single-stranded RNA substrate, uHTS hits, dose response (AID 588481); assay type: functional
[12] = target: T6, RNA-binding protein pos-1 (Caenorhabditis elegans, UniProt G5EF15); assay: disruptors of C. elegans POS-1 RNA interaction – biochemical, fluorescence polarization, dose response (AID 1964);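 also: purified POS-1 fused to maltose binding protein made in E. coli; potency of compounds blocking POS-1 binding to fluorescent RNA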
T6 sequence (G5EF15 whole entry): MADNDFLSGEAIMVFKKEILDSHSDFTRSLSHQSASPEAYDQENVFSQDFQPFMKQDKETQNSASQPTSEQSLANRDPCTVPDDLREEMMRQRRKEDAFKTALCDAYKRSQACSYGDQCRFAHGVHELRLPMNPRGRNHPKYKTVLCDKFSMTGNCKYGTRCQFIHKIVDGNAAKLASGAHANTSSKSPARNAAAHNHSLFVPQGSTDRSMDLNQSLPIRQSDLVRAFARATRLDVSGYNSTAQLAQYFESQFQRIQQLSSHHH

[13] = target: T7, Zinc finger protein mex-5 (Caenorhabditis elegans, UniProt Q9XUB2); assay: potency of MEX-5 RNA-binding blockers – biochemical, C. elegans, fluorescence polarization, dose response (AID 1960)
T7 sequence (Q9XUB2 whole entry): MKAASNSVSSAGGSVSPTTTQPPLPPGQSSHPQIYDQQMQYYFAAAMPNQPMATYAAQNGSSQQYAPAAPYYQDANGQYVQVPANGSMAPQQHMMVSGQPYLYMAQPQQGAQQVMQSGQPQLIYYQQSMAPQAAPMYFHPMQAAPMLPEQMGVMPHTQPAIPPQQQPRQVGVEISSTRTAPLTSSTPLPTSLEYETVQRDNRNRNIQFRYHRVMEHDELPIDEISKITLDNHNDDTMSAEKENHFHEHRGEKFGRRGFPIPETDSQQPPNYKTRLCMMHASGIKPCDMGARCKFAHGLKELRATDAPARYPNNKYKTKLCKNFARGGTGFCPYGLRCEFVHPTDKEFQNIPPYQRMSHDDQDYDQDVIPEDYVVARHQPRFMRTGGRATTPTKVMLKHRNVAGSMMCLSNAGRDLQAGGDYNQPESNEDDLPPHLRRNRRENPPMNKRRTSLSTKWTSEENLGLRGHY

[14] = target: T8, Corticotropin-releasing factor receptor 2/Corticotropin-releasing factor-binding protein (Homo sapiens, UniProt P24387+Q13324); assay: activators of CRF receptor 2 with binding protein – uHTS hits, confirmation (AID 602473); assay type: functional; details: read-out: EC50_Mean
T8 sequence (Q13324 whole entry): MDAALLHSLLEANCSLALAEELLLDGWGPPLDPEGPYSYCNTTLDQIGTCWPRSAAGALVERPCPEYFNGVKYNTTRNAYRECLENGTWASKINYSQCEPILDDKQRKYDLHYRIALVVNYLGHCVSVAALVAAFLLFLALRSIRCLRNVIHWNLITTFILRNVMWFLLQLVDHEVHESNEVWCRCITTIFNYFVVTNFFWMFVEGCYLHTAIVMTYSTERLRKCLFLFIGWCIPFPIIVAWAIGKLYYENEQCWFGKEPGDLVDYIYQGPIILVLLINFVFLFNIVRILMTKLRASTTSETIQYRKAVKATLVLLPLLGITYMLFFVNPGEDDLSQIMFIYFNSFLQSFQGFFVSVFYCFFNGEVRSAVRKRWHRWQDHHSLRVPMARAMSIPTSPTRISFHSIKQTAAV
T8 sequence (P24387 whole entry): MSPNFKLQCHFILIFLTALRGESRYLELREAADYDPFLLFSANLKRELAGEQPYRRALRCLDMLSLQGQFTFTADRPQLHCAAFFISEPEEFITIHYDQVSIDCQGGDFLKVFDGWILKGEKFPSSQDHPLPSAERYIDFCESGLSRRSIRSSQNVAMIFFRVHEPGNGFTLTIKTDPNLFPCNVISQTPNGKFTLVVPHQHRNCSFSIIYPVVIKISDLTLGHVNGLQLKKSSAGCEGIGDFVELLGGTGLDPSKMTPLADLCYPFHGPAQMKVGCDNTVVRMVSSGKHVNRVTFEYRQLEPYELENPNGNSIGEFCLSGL

[15] = target: Hepatocyte nuclear factor 4-alpha (Homo sapiens, UniProt P41235); assay type: functional, cell-based;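 also: biochemical luminescence-based dose-response counterscreen measuring inhibition of HNF4 dimerization, run alongside a screen for blockers of ABHD5–perilipin-5 interaction; split luciferase complementation of HNF4 fusion proteins in cell lysate measuring dimerization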
[16] = system: A549; assay: viability loss in A549 cells – cell-based, plate reader, cherry-pick samples, cytotoxicity control, dose response (AID 687028); assay type: functional; details: Homo sapiens
[17] = cells; assay type: functional, cell-based
[18] = cells; assay type: functional, cell-based; remark: listed apart in the source
[19] = target: Paired box protein Pax-8 (Homo sapiens, UniProt Q06710); assay: PAX8 transcriptional activity inhibition in RMG-I – RMG-I cells, luciferase, cherry-pick, dose response (AID 687027); assay type: functional, cell-based;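 also: luciferase reporter driven by Pax8 target thyroperoxidase promoter measured by SteadyGlo luminescence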
[20] = Dd2 parasite growth inhibition in erythrocytes – SYBR Green, dry powder samples, set 9, dose response (AID 1159568); assay type: functional, cell-based
[21] = OVCAR8 cell viability loss – plate reader, dry powder samples, PAX8 project, dose response (AID 743197); assay type: functional, cell-based; details: OVCAR-8

Hepatocyte nuclear factor 4-alpha, sequence (P41235 whole entry, the tested form may be a part): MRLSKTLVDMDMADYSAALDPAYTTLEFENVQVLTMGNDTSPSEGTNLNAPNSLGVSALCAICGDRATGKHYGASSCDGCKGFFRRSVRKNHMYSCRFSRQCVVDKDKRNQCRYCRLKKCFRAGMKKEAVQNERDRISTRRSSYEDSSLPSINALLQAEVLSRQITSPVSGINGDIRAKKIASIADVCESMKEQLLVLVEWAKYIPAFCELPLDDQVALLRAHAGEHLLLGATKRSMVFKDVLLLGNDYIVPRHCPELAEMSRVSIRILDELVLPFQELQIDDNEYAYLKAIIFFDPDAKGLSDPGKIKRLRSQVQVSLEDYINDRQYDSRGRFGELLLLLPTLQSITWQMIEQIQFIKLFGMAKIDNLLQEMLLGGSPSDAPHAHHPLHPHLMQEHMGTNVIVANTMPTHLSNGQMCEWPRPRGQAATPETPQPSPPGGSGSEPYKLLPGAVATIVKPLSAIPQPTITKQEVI
Galanin receptor type 3, sequence (O60755 whole entry): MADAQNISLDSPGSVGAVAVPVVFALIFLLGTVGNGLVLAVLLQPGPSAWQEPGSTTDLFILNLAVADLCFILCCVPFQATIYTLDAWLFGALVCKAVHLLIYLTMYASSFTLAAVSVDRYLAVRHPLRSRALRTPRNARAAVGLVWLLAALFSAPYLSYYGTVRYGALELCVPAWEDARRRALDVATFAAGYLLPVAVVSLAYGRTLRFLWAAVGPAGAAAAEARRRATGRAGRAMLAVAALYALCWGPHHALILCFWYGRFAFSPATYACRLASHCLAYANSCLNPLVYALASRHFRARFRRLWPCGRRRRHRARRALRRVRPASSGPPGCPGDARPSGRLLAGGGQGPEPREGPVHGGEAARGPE
Paired box protein Pax-8, sequence (Q06710 whole entry): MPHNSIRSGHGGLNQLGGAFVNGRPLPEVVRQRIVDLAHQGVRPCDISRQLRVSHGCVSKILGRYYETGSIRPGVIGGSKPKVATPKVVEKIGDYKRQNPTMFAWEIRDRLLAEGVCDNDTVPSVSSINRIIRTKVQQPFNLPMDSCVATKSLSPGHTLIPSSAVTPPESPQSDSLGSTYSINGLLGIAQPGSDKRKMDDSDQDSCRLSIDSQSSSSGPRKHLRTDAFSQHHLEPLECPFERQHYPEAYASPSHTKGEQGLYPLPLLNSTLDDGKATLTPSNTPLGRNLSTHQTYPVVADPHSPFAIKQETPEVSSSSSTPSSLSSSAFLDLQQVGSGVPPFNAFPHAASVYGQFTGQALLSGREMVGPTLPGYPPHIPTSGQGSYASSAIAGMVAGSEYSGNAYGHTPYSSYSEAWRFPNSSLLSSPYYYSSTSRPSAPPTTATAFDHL
Beta Lactamase, sequence (Q932Y6 whole entry, the tested form may be a part): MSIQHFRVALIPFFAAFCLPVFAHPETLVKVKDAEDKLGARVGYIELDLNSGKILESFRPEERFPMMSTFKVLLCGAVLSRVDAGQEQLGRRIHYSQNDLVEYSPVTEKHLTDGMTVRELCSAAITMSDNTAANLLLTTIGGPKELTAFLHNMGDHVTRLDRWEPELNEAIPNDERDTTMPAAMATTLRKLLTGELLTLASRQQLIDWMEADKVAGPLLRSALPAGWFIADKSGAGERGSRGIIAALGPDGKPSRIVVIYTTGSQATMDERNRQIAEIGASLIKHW

## CCC(CC)C(=O)Nc1ccc([N+](=O)[O-])cn1
[1]
  EC50: > 29.9 µM (inactive)
[2]
  IC50: > 29.9 µM (inactive)

## N#C/C(=C/c1ccc(-c2ccc(S(N)(=O)=O)cc2)o1)c1nc2ccccc2s1
[3]
  IC50: 5.09 µM (active)
[4]
  IC50: 22.1 µM (inactive)

## Cc1cccc(N2C(=O)Cc3ccccc3C2=O)c1
[5]
  IC50: > 100 µM (inactive)
[6]
  IC50: 5.17 µM (active)
[7]
  AC50: 22.7 µM (active)

## CCCCC[n+]1ccn(C2=C([N-]S(=O)(=O)c3ccc(Br)cc3)C(=O)c3ccccc3C2=O)c1
[8]
  EC50: > 150 µM (not active)
[9]
  IC50: 9.66 µM (active)

## Oc1ccccc1-c1nc(NCc2ccco2)c2ccccc2n1
[10]
  EC50: > 99 µM (inactive)
[11]
  EC50: > 99 µM (inactive)

## COc1ccc(N/C=C2/C(=O)N(c3cccc(C)n3)C(=O)c3ccccc32)c(OC)c1
[12]
  EC50: > 300 µM (not active)
[10]
  EC50: 14.5 µM (active)
[13]
  EC50: 55.4 µM (inconclusive)
[11]
  EC50: > 99 µM (inactive)
[14]
  EC50: 8.64 µM (active)

## CC(C)(C)CN1CCN(Cc2nc(-c3ccc(F)cc3)cs2)CC1CCO (configuration not stated)
[1]
  EC50: > 29.9 µM (inactive)
[2]
  IC50: 2.83 µM (active)

## N#Cc1ccccc1OCc1cn(CC(=O)c2ccc(O)cc2)nn1
[15]
  IC50: 6.36 µM (active)

## Cc1cccnc1C(NC(=O)C1CCN(CCCc2ccccc2)CC1)c1ccc(Cl)cc1 (configuration not stated)
[16]
  AC50: 27.9 µM (active)

## O=C(O)C1C2CCC(C2)C1C(=O)NCCc1ccccc1 (configuration not stated)
[17]
  IC50: > 29.9 µM (inactive)
[18]
  EC50: > 29.9 µM (inactive)

## CC(C)(C)NC(=O)C(c1ccc(C#N)cc1)n1c(=O)c(-c2ccco2)nc2ccccc21 (configuration not stated)
[15]
  IC50: 1.47 µM (active)

## CS(=O)(=O)N1C[C@@H]2N[C@H](C1)[C@@H]2c1ccc(-c2ccccc2)cc1
[19]
  AC50: 4.42 µM (active)
[20]
  AC50: 9.14 µM (active)
[16]
  AC50: 17.7 µM (active)
[21]
  AC50: > 60 µM (inactive)
